# In patent US20020137929A1, “1 - (3-heterocyclylphenyl) isothiourea, -isourea, -guanidine and -amidine herbicidal agents” (Intellectual Property Department, BASF Aktiengesellschaft, priority 1998, published 2002):
# Experiments:
# [1] = test system: AMBEL (Ragweed, Common); test: Postemergence herbicidal evaluation; format: in vivo, Ambrosia artemisifolia; conditions: postemergence
# Summary of the method: (§1)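 Visual 0–9 rating versus control (stand, vigor, malformation, size, chlorosis, overall appearance), taken four to five weeks post-spray. Two-week-old seedlings received roughly 0.0156–0.500 kg/ha active in acetone/water (50/50) with 0.5% TWEEN 20 via nozzle at 40 psi.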
# [2] = test system: CASOB (Sicklepod); test: Postemergence herbicidal evaluation; format: in vivo, Cassia obtusifolia; conditions: postemergence
# Summary of the method: as §1
# [3] = test system: GALAP (Galium); test: Postemergence herbicidal evaluation; format: in vivo, Galium aparine; conditions: postemergence
# Summary of the method: as §1
# [4] = test system: GLXMAW (Soybean, Williams); test: Postemergence herbicidal evaluation; format: in vivo, Glycine max, (L.) Merr. cv Williams; conditions: postemergence
# Summary of the method: as §1
# [5] = test system: TRZAWR (Wheat, Winter, cv Riband); test: Postemergence herbicidal evaluation; format: in vivo, Triticum aestivum; conditions: postemergence
# Summary of the method: as §1
# [6] = test system: GALAP (Galium); test: Preemergence herbicidal evaluation; format: in vivo, Galium aparine; conditions: preemergence, rated 4-5 weeks after treatment, 0-9 scale
# Summary of the method: (§2)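 Preemergence soil application of compound, sprayed in aqueous acetone at rates equivalent to about 0.0156 to 0.500 kg per hectare onto freshly sown cups. Plant response was judged by eye on a 0-9 scale four to five weeks later.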
# [7] = test system: SETVI (Foxtail, Green); test: Preemergence herbicidal evaluation; format: in vivo, Setaria viridis; conditions: preemergence, rated 4-5 weeks after treatment, 0-9 scale
# Summary of the method: as §2
# [8] = test system: ORYSAT (Rice, Tebonnet); test: Preemergence herbicidal evaluation; format: in vivo, Oryza sativa, (L.) Tebonnet; conditions: preemergence, rated 4-5 weeks after treatment, 0-9 scale
# Summary of the method: as §2
# [9] = test system: ECHORC (Watergrass (Calif.)); test: Preemergence weed control under flooded paddy conditions; format: in vivo, Echinochloa oryzoides; conditions: rated 3-4 weeks after treatment
# Summary of the method: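 Flooded-pot preemergence screen with silt loam and seeds in the upper 0.5 cm. Dose about 0.0313 to 0.500 kg/ha, delivered into flood water; visual 0-9 score after 3 to 4 weeks.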
# [10] = test system: CYPSE (Flatsedge); test: as above; format: in vivo, Cyperus serotinus; conditions: rated 3-4 weeks after treatment
# Summary of the method: (§3)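 First, seeds or propagules go into the top 0.5 cm of silt loam; next, water is held 1.5 to 3 cm over the soil; then compound (50/50 acetone/water) is pipetted into it at about 0.0313 to 0.500 kg/ha; finally plants are rated visually 0-9 after three to four weeks.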
# [11] = test system: MOOVA (Monochoria); test: as above; format: in vivo, Monochoria vaginalis; conditions: rated 3-4 weeks after treatment
# Summary of the method: as §3
# [12] = test system: SAGPY (Arrowhead (Pygmaea)); test: as above; format: in vivo, Sagittaria pygmaea; conditions: rated 3-4 weeks after treatment
# Summary of the method: as §3
# [13] = test system: ECHORC (Watergrass (Calif.)); test: Postemergence weed control under flooded paddy conditions; format: in vivo, Echinochloa oryzoides; conditions: postemergence weeds, rated 3 to 4 weeks after treatment
# Summary of the method: (§4)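 With weeds 3 to 5 cm tall and rice at the 1.5 to 2.5 leaf stage, containers were flooded and water held 1.5 to 3 cm above soil. Compounds in 50/50 v/v aqueous/acetone went into the flood water at about 0.0313 to 0.500 kg/ha a.i. Effects were visually rated 0–9 against controls after three to four weeks in the greenhouse.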
# [14] = test system: SAGPY (Arrowhead (Pygmaea)); test: as above; format: in vivo, Sagittaria pygmaea; conditions: postemergence weeds, rated 3 to 4 weeks after treatment
# Summary of the method: as §4
compound,measurement,setting,value
"CCOC(=O)CN1C(=O)C(CC(=O)NS(=O)(=O)CC)SC1=Nc1cc(-n2c(=O)cc(C(F)(F)F)n(C)c2=O)c(F)cc1Cl (stereo not drawn) [Compound 103, Ethyl 2-{{2-chloro-5-[3,6-dihydro-3-methyl-2,6-dioxo-4-(trifluoromethyl)-1(2H)-pyrimidinyl]-4-fluorophenyl}imino}-5-{[(ethylsulfonyl)carbamoyl]-methyl}-4-oxo-3-thiazolidineacetate]",herbicidal rating AMBEL,[1]; rate 0.0156 kg/ha,9.0
same,herbicidal rating AMBEL,[1]; rate 0.0313 kg/ha,9.0
same,herbicidal rating AMBEL,[1]; rate 0.0625 kg/ha,9.0
same,herbicidal rating AMBEL,[1]; rate 0.1250 kg/ha,9.0
same,herbicidal rating CASOB,[2]; rate 0.0156 kg/ha,0.0
same,herbicidal rating CASOB,[2]; rate 0.0313 kg/ha,3.0
same,herbicidal rating CASOB,[2]; rate 0.0625 kg/ha,3.0
same,herbicidal rating CASOB,[2]; rate 0.1250 kg/ha,3.0
same,herbicidal rating GALAP,[3]; rate 0.0156 kg/ha,0.0
same,herbicidal rating GALAP,[3]; rate 0.0313 kg/ha,3.0
same,herbicidal rating GALAP,[3]; rate 0.0625 kg/ha,5.0
same,herbicidal rating GALAP,[3]; rate 0.1250 kg/ha,7.0
same,herbicidal rating GLXMAW,[4]; rate 0.0156 kg/ha,8.0
same,herbicidal rating GLXMAW,[4]; rate 0.0313 kg/ha,7.0
same,herbicidal rating GLXMAW,[4]; rate 0.0625 kg/ha,9.0
same,herbicidal rating GLXMAW,[4]; rate 0.1250 kg/ha,9.0
same,herbicidal rating TRZAWR,[5]; rate 0.0156 kg/ha,3.5
same,herbicidal rating TRZAWR,[5]; rate 0.0313 kg/ha,6.0
same,herbicidal rating TRZAWR,[5]; rate 0.0625 kg/ha,7.5
same,herbicidal rating TRZAWR,[5]; rate 0.1250 kg/ha,7.5
same,GALAP rating,[6]; 0.0313 kg/ha,0.0
same,GALAP rating,[6]; 0.0625 kg/ha,0.0
same,GALAP rating,[6]; 0.1250 kg/ha,0.0
same,GALAP rating,[6]; 0.2500 kg/ha,0.0
same,GALAP rating,[6]; 0.5000 kg/ha,7.0
same,SETVI rating,[7]; 0.0313 kg/ha,0.0
same,SETVI rating,[7]; 0.0625 kg/ha,0.0
same,SETVI rating,[7]; 0.1250 kg/ha,3.0
same,SETVI rating,[7]; 0.2500 kg/ha,3.0
same,SETVI rating,[7]; 0.5000 kg/ha,9.0
same,ORYSAT rating,[8]; 0.0313 kg/ha,0.0
same,ORYSAT rating,[8]; 0.0625 kg/ha,0.0
same,ORYSAT rating,[8]; 0.1250 kg/ha,0.0
same,ORYSAT rating,[8]; 0.2500 kg/ha,0.0
same,ORYSAT rating,[8]; 0.5000 kg/ha,2.0
same,ECHORC herbicidal effect rating,[9]; 0.0313 kg/ha,4.0
same,ECHORC herbicidal effect rating,[9]; 0.0625 kg/ha,4.0
same,ECHORC herbicidal effect rating,[9]; 0.1250 kg/ha,5.0
same,ECHORC herbicidal effect rating,[9]; 0.2500 kg/ha,6.0
same,CYPSE herbicidal effect rating,[10]; 0.0313 kg/ha,5.0
same,CYPSE herbicidal effect rating,[10]; 0.0625 kg/ha,5.0
same,CYPSE herbicidal effect rating,[10]; 0.1250 kg/ha,6.0
same,CYPSE herbicidal effect rating,[10]; 0.2500 kg/ha,6.0
same,MOOVA herbicidal effect rating,[11]; 0.0313 kg/ha,5.0
same,MOOVA herbicidal effect rating,[11]; 0.0625 kg/ha,7.0
same,MOOVA herbicidal effect rating,[11]; 0.1250 kg/ha,9.0
same,MOOVA herbicidal effect rating,[11]; 0.2500 kg/ha,9.0
same,SAGPY herbicidal effect rating,[12]; 0.0313 kg/ha,7.0
same,SAGPY herbicidal effect rating,[12]; 0.0625 kg/ha,9.0
same,SAGPY herbicidal effect rating,[12]; 0.1250 kg/ha,9.0
same,SAGPY herbicidal effect rating,[12]; 0.2500 kg/ha,9.0
same,Herbicidal rating ECHORC,[13]; Rate 0.0313 kg/ha,4.0
same,Herbicidal rating ECHORC,[13]; Rate 0.0625 kg/ha,4.0
same,Herbicidal rating ECHORC,[13]; Rate 0.1250 kg/ha,5.0
same,Herbicidal rating ECHORC,[13]; Rate 0.2500 kg/ha,6.0
same,Herbicidal rating SAGPY,[14]; Rate 0.0313 kg/ha,7.0
same,Herbicidal rating SAGPY,[14]; Rate 0.0625 kg/ha,9.0
same,Herbicidal rating SAGPY,[14]; Rate 0.1250 kg/ha,9.0
same,Herbicidal rating SAGPY,[14]; Rate 0.2500 kg/ha,9.0
"CCS(=O)(=O)NC(=O)CC1SC(=Nc2cc(-n3c(=O)cc(C(F)(F)F)n(C)c3=O)c(F)cc2Cl)N(C)C1=O (stereo not drawn) [Compound 105, 2-{{2-Chloro-5-[3,6-dihydro-3-methyl-2,6-dioxo-4-(trifluoromethyl)-1(2H)-pyrimidinyl]-4-fluorophenyl}imino}-N-(ethylsulfonyl)-3-methyl-4-oxo-5-thiazolidineacetamide]",herbicidal rating AMBEL,[1]; rate 0.0156 kg/ha,0.0
same,herbicidal rating AMBEL,[1]; rate 0.0313 kg/ha,0.0
same,herbicidal rating AMBEL,[1]; rate 0.0625 kg/ha,3.0
same,herbicidal rating AMBEL,[1]; rate 0.1250 kg/ha,9.0
same,herbicidal rating CASOB,[2]; rate 0.0156 kg/ha,0.0
same,herbicidal rating CASOB,[2]; rate 0.0313 kg/ha,0.0
same,herbicidal rating CASOB,[2]; rate 0.0625 kg/ha,0.0
same,herbicidal rating CASOB,[2]; rate 0.1250 kg/ha,1.0
same,herbicidal rating GALAP,[3]; rate 0.0156 kg/ha,0.0
same,herbicidal rating GALAP,[3]; rate 0.0313 kg/ha,0.0
same,herbicidal rating GALAP,[3]; rate 0.0625 kg/ha,1.0
same,herbicidal rating GALAP,[3]; rate 0.1250 kg/ha,2.0
same,herbicidal rating GLXMAW,[4]; rate 0.0156 kg/ha,3.0
same,herbicidal rating GLXMAW,[4]; rate 0.0313 kg/ha,4.5
same,herbicidal rating GLXMAW,[4]; rate 0.0625 kg/ha,6.5
same,herbicidal rating GLXMAW,[4]; rate 0.1250 kg/ha,7.5
same,herbicidal rating TRZAWR,[5]; rate 0.0156 kg/ha,3.5
same,herbicidal rating TRZAWR,[5]; rate 0.0313 kg/ha,3.0
same,herbicidal rating TRZAWR,[5]; rate 0.0625 kg/ha,3.5
same,herbicidal rating TRZAWR,[5]; rate 0.1250 kg/ha,3.5
same,GALAP rating,[6]; 0.2500 kg/ha,3.0
same,GALAP rating,[6]; 0.5000 kg/ha,7.0
same,SETVI rating,[7]; 0.1250 kg/ha,0.0
same,SETVI rating,[7]; 0.2500 kg/ha,3.0
same,SETVI rating,[7]; 0.5000 kg/ha,3.0
same,ORYSAT rating,[8]; 0.1250 kg/ha,0.0
same,ORYSAT rating,[8]; 0.2500 kg/ha,0.0
same,ORYSAT rating,[8]; 0.5000 kg/ha,0.0
same,ECHORC herbicidal effect rating,[9]; 0.0313 kg/ha,0.0
same,ECHORC herbicidal effect rating,[9]; 0.0625 kg/ha,3.0
same,ECHORC herbicidal effect rating,[9]; 0.1250 kg/ha,4.0
same,ECHORC herbicidal effect rating,[9]; 0.2500 kg/ha,5.0
same,CYPSE herbicidal effect rating,[10]; 0.0313 kg/ha,2.0
same,CYPSE herbicidal effect rating,[10]; 0.0625 kg/ha,5.0
same,CYPSE herbicidal effect rating,[10]; 0.1250 kg/ha,7.0
same,CYPSE herbicidal effect rating,[10]; 0.2500 kg/ha,9.0
same,MOOVA herbicidal effect rating,[11]; 0.0313 kg/ha,6.0
same,MOOVA herbicidal effect rating,[11]; 0.0625 kg/ha,7.0
same,MOOVA herbicidal effect rating,[11]; 0.1250 kg/ha,7.0
same,MOOVA herbicidal effect rating,[11]; 0.2500 kg/ha,9.0
same,SAGPY herbicidal effect rating,[12]; 0.0313 kg/ha,3.0
same,SAGPY herbicidal effect rating,[12]; 0.0625 kg/ha,5.0
same,SAGPY herbicidal effect rating,[12]; 0.1250 kg/ha,5.0
same,SAGPY herbicidal effect rating,[12]; 0.2500 kg/ha,7.0
same,Herbicidal rating ECHORC,[13]; Rate 0.0313 kg/ha,0.0
same,Herbicidal rating ECHORC,[13]; Rate 0.0625 kg/ha,3.0
same,Herbicidal rating ECHORC,[13]; Rate 0.1250 kg/ha,4.0
same,Herbicidal rating ECHORC,[13]; Rate 0.2500 kg/ha,5.0
same,Herbicidal rating SAGPY,[14]; Rate 0.0313 kg/ha,3.0
same,Herbicidal rating SAGPY,[14]; Rate 0.0625 kg/ha,5.0
same,Herbicidal rating SAGPY,[14]; Rate 0.1250 kg/ha,5.0
same,Herbicidal rating SAGPY,[14]; Rate 0.2500 kg/ha,7.0
